Data from patent US4921850A, “3-propenylcephem derivative” (Eisai Co., Ltd., priority 1986, dated 1990).
≈ marks a conversion by molar mass, not a printed value. Where two headings read alike, the source gives them in different places.

Legend:
Staph. aureus 209-P = experiment: Anti-bacterial activity (MIC), agar dilution; format: cell-based; details: Staph. aureus 209-P, agar dilution, about 10^6 CFU/ml, 18 hours, 37° C.
How it was run: (§1)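 MIC values (μg/ml) come from agar dilution: strains grown overnight in Mueller-Hinton broth, diluted to roughly 10^6 CFU/ml, spotted on Mueller-Hinton agar containing twofold serial antibiotic dilutions, and read after 18 hours at 37° C.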

Escher. coli NIHJ = experiment: Anti-bacterial activity (MIC), agar dilution; format: cell-based
How it was run: as §1

[1] = system: Morganella morganii EP-14; experiment: Anti-bacterial activity (MIC), agar dilution; format: cell-based; details: about 10^6 CFU/ml, 37° C.
How it was run: as §1

Pseud. aeruginosa EP-01 = experiment: Anti-bacterial activity (MIC), agar dilution; format: cell-based
How it was run: as §1

Ser. marcescens ES-75 = experiment: Anti-bacterial activity (MIC), agar dilution; format: cell-based; details: Ser. marcescens ES-75, agar dilution, about 10^6 CFU/ml, 18 hours, 37° C.
How it was run: as §1

Kleb. pneumoniae EK-6 = experiment: Anti-bacterial activity (MIC), agar dilution; format: cell-based
How it was run: as §1

in vivo = details: read-out: values of acute toxicity
Source text: (1) Acute toxicity in mouse:
The compounds according to this invention dissolved in a physiological saline solution were intravenously dosed to five ICR male 6 weeks-old mouse.

[2] = Staphylococcus aureus, 209P, 18 h, read-out: MIC
[3] = Morganella morganii, EP14, 18 h, read-out: MIC
[4] = Serratia marcescens, ES75, 18 h, read-out: MIC
[5] = Klebsiella pneumoniae, EK6, 18 h, Kleb. pneumoniae EK-6, agar dilution, about 10^6 CFU/ml, 18 hours, 37° C., read-out: MIC
[6] = intravenous, physiological saline solution, five ICR male 6 weeks-old mouse
[7] = Escherichia coli, 18 h, Escher. coli NIHJ, agar dilution, about 10^6 CFU/ml, 18 hours, 37° C., read-out: MIC
[8] = Pseudomonas aeruginosa, EP01, 18 h, Pseud. aeruginosa EP-01, agar dilution, about 10^6 CFU/ml, 18 hours, 37° C., read-out: MIC

| SMILES | MIC (Staph. aureus 209-P; [2]) [µg/mL] | MIC (Escher. coli NIHJ; Escherichia coli, 18 h) [µg/mL] | MIC [1, 3] [µg/mL] | MIC (Pseud. aeruginosa EP-01; Pseudomonas aeruginosa, EP01, 18 h) [µg/mL] | MIC (Ser. marcescens ES-75; [4]) [µg/mL] | MIC (Kleb. pneumoniae EK-6; [5]) [µg/mL] | LD50 (in vivo; [6]) [mg/kg] | MIC (Escher. coli NIHJ; [7]) [µg/mL] | MIC (Pseud. aeruginosa EP-01; [8]) [µg/mL] | LD50 (in vivo; mouse, iv) [mg/kg] | MIC (Staph. aureus 209-P) [µg/mL] | MIC (Escher. coli NIHJ; Escher. coli NIHJ, agar dilution, about 10^6 CFU/ml, 18 hours, 37° C.) [µg/mL] | MIC ([1]; 18 hours) [µg/mL] | MIC (Pseud. aeruginosa EP-01; Pseud. aeruginosa EP-01, agar dilution, about 10^6 CFU/ml, 18 hours, 37° C.) [µg/mL] | MIC (Ser. marcescens ES-75) [µg/mL] | MIC (Kleb. pneumoniae EK-6; Kleb. pneumoniae EK-6, agar dilution, about 10^6 CFU/ml, 18 hours, 37° C.) [µg/mL] | MIC (Kleb. pneumoniae EK-6; Klebsiella pneumoniae, EK6, 18 h) [µg/mL] |
| --- | --- | --- | --- | --- | --- | --- | --- | --- | --- | --- | --- | --- | --- | --- | --- | --- | --- |
| NC(=O)C1CC[N+](C/C=C/C2=C(C(=O)[O-])N3C(=O)[C@@H](NC(=O)/C(=N\OCF)c4nsc(N)n4)[C@H]3SC2)(CCO)CC1 (single isomer, unassigned) [Example 2-1, 7β-[2-(5-Amino-1,2,4-thiadiazol-3-yl)-(Z)-2-fluoromethoxyiminoacetamido]-3-[(E)-3-[1-(2-hydroxyethyl)-4-carbamoyl-1-piperidinio]-1-propen-1-yl]-3-cephem-4-carboxylate] | 0.4 (≈ 0.653 µM) | 0.05 (≈ 0.0816 µM) | 0.05 (≈ 0.0816 µM) | 1.56 (≈ 2.55 µM) | 0.05 (≈ 0.0816 µM) | 0.05 (≈ 0.0816 µM) | > 2000 |  |  |  |  |  |  |  |  |  |  |
| C[N+]1(C/C=C/C2=C(C(=O)[O-])N3C(=O)[C@@H](NC(=O)/C(=N\OCF)c4nsc(N)n4)[C@H]3SC2)C[C@H](O)C[C@@H]1CO (single isomer, unassigned) [Example 6-1, 7β-[2-(5-Amino-1,2,4-thiadiazol-3-yl)-(Z)-2-fluoromethoxyiminoacetamido]-3-[(E)-3-(4R-hydroxy-2R-hydroxymethyl-1-methyl-1-pyrrolidinio)-1-propen-1-yl]-3-cephem-4-carboxylate] | 0.2 (≈ 0.35 µM) |  | ≤ 0.025 |  | ≤ 0.025 | ≤ 0.025 |  | 0.05 (≈ 0.0875 µM) | 0.8 (≈ 1.4 µM) | > 2000 |  |  |  |  |  |  |  |
| Nc1nc(/C(=N/OCF)C(=O)N[C@@H]2C(=O)N3C(C(=O)[O-])=C(/C=C/C[N+]4(CCO)C[C@H](O)C[C@H]4CO)CS[C@H]23)ns1 (single isomer, unassigned) [Example 7-2, 7β-[2-(5-Amino-1,2,4-thiadiazol-3-yl)-(Z)-2-fluoromethoxyiminoacetamido]-3-[(E)-3-[4R-hydroxy-1-(2-hydroxyethyl)-2S-hydroxymethyl-1-pyrrolidinio]-1-propen-1-yl]-3-cephem-4-carboxylate] |  |  |  |  |  |  | > 2000 |  |  |  | 0.2 (≈ 0.332 µM) | ≤ 0.025 | ≤ 0.025 | 0.8 (≈ 1.33 µM) | ≤ 0.025 | ≤ 0.025 |  |
| CC(C(N)=O)[N+]1(C/C=C/C2=C(C(=O)[O-])N3C(=O)[C@@H](NC(=O)/C(=N\OCF)c4nsc(N)n4)[C@H]3SC2)CCCC1 (single isomer, unassigned) [Example 13-1] | 0.2 (≈ 0.343 µM) |  | ≤ 0.025 |  | ≤ 0.025 | ≤ 0.025 | > 2000 | ≤ 0.025 | 0.8 (≈ 1.37 µM) |  |  |  |  |  |  |  |  |
| C[C@@H](C(N)=O)[N+](C)(C)C/C=C/C1=C(C(=O)[O-])N2C(=O)[C@@H](NC(=O)/C(=N\OCF)c3nsc(N)n3)[C@H]2SC1 [Example 3-1] | 0.2 (≈ 0.359 µM) |  | ≤ 0.025 |  | 0.05 (≈ 0.0898 µM) | ≤ 0.025 | > 2000 | ≤ 0.025 | 0.8 (≈ 1.44 µM) |  |  |  |  |  |  |  |  |
| C[C@H](C(N)=O)[N+](C)(C)C/C=C/C1=C(C(=O)[O-])N2C(=O)[C@@H](NC(=O)/C(=N\OCF)c3nsc(N)n3)[C@H]2SC1 [Example 3-2, 7β-[2-(5-Amino-1,2,4-thiadiazol-3-yl)-(Z)-2-fluoromethoximinoacetamido]-3-[(E)-3-[(1R-carbamoylethyl)dimethylammonio]-1-propen-1-yl]-3-cephem-4-carboxylate] | 0.2 (≈ 0.359 µM) |  | ≤ 0.025 |  | 0.1 (≈ 0.18 µM) | ≤ 0.025 | > 2000 | ≤ 0.025 | 1.56 (≈ 2.8 µM) |  |  |  |  |  |  |  |  |
| C[N+](C)(C/C=C/C1=C(C(=O)[O-])N2C(=O)[C@@H](NC(=O)/C(=N\OCF)c3nsc(N)n3)[C@H]2SC1)[C@H](CO)C(N)=O [Example 5, 7β-[2-(5-Amino-1,2,4-thiadiazol-3-yl)-(Z)-2-fluoromethoxyiminoacetamido]-3-[(E)-3-[(1R-carbamoyl-2-hydroxyethyl)dimethylammonio]-1-propen-1-yl]-3-cephem-4-carboxylate] | 0.2 (≈ 0.349 µM) |  | ≤ 0.025 |  | ≤ 0.025 | ≤ 0.025 | > 2000 | ≤ 0.025 | 0.8 (≈ 1.4 µM) |  |  |  |  |  |  |  |  |
| NC(=O)C[N+]1(C/C=C/C2=C(C(=O)[O-])N3C(=O)[C@@H](NC(=O)/C(=N\OCF)c4nsc(N)n4)[C@H]3SC2)CCC(O)C1 (stereo partly drawn) [Example 9-1, 7β-[2-(5-Amino-1,2,4-thiadiazol-3-yl)-(Z)-2-fluoromethoxyiminoacetamido]-3-[(E)-3-(1-carbamoylmethyl-3-hydroxy-1-pyrrolidinio)-1-propen-1-yl]-3-cephem-4-carboxylate] | 0.4 (≈ 0.684 µM) |  | ≤ 0.025 |  | ≤ 0.025 | ≤ 0.025 | > 2000 | ≤ 0.025 | 0.8 (≈ 1.37 µM) |  |  |  |  |  |  |  |  |
| C[N+]1(C/C=C/C2=C(C(=O)[O-])N3C(=O)[C@@H](NC(=O)/C(=N\OCF)c4nsc(N)n4)[C@H]3SC2)CCN(S(=O)(=O)O)CC1 [Example 10, 7β-[2-(5-Amino-1,2,4-thiadiazol-3-yl)-(Z)-2-fluoromethoxyiminoacetamido]-3-[(E)-3-(1-methyl-4-sulfo-1-piperazinio)-1-propen-1-yl]-3-cephem-4-carboxylate] | 0.8 (≈ 1.29 µM) |  | ≤ 0.025 |  | ≤ 0.025 | ≤ 0.025 | > 2000 | ≤ 0.025 | 1.56 (≈ 2.51 µM) |  |  |  |  |  |  |  |  |
| NC(=O)C[N+]1(C/C=C/C2=C(C(=O)[O-])N3C(=O)[C@@H](NC(=O)/C(=N\OCF)c4nsc(N)n4)[C@H]3SC2)CCC(O)CC1 (stereo partly drawn) [Example 11, 7β-[2-(5-Amino-1,2,4-thiadiazol-3-yl)-(Z)-2-fluoromethoxyiminoacetamido]-3-[(E)-3-(1-carbamoylmethyl-4-hydroxy-1-piperidinio)-1-propen-1-yl]-3-cephem-4-carboxylate] | 0.4 (≈ 0.668 µM) |  | ≤ 0.025 |  | ≤ 0.025 | ≤ 0.025 | > 2000 | ≤ 0.025 | 0.8 (≈ 1.34 µM) |  |  |  |  |  |  |  |  |
| CC12C[N+](C/C=C/C3=C(C(=O)[O-])N4C(=O)[C@@H](NC(=O)/C(=N\OCF)c5nsc(N)n5)[C@H]4SC3)(CCO1)CCO2 [Example 12, 7β-[2-(5-Amino-1,2,4-thiadiazol-3-yl)-(Z)-2-fluoromethoxyiminoacetamido]-3-[(E)-3-(5-aza-1-methyl-2,8-dioxabicyclo[3.3.1]nona-5-io)-1-propen-1-yl]-3-cephem-4-carboxylate] | 0.4 (≈ 0.685 µM) |  | 0.05 (≈ 0.0857 µM) |  | 0.1 (≈ 0.171 µM) |  | > 2000 | 0.05 (≈ 0.0857 µM) | 1.56 (≈ 2.67 µM) |  |  |  |  |  |  |  | ≤ 0.025 |
| CC[N+](CC)(C/C=C/C1=C(C(=O)[O-])N2C(=O)[C@@H](NC(=O)/C(=N\OCF)c3nsc(N)n3)[C@H]2SC1)CC(N)=O [Example 96] | 0.2 (≈ 0.35 µM) |  | ≤ 0.025 |  | ≤ 0.025 | ≤ 0.025 | > 2000 | ≤ 0.025 | 0.8 (≈ 1.4 µM) |  |  |  |  |  |  |  |  |
| CC(=O)C[N+](C)(C)C/C=C/C1=C(C(=O)[O-])N2C(=O)[C@@H](NC(=O)/C(=N\OCF)c3nsc(N)n3)[C@H]2SC1 [Example 137, 7β-[2-(5-Amino-1,2,4-thiadiazol-3-yl)-(Z)-2-fluoromethoxyiminoacetamido]-3-[(E)-3-[(2-oxopropyl)dimethylammonio]-1-propen-1-yl]-3-cephem-4-carboxylate] |  |  |  |  |  |  | > 2000 |  |  |  |  |  |  |  |  |  |  |
| N#CCO/N=C(\C(=O)N[C@@H]1C(=O)N2C(C(=O)[O-])=C(/C=C/C[n+]3ccc(C(N)=O)cc3)CS[C@H]12)c1nsc(N)n1 [Example 158, 7β-[2-(5-Amino-1,2,4-thiadiazol-3-yl)-(Z)-2-cyanomethoxyiminoacetoamido]-3-[(E)-3-(4-carbamoylpyridinio)-1-propen-1-yl]-3-cephem-4-carboxylate] | 0.2 (≈ 0.351 µM) |  | 0.1 (≈ 0.176 µM) |  | 0.1 (≈ 0.176 µM) | ≤ 0.025 |  | ≤ 0.025 | 1.56 (≈ 2.74 µM) |  |  |  |  |  |  |  |  |
| C[N+](C)(C/C=C/C1=C(C(=O)[O-])N2C(=O)[C@@H](NC(=O)/C(=N\OCC#N)c3nsc(N)n3)[C@H]2SC1)Cc1nnco1 [Example 159] | 0.4 (≈ 0.696 µM) |  | 0.1 (≈ 0.174 µM) |  | 0.1 (≈ 0.174 µM) | 0.05 (≈ 0.087 µM) |  | 0.05 (≈ 0.087 µM) | 1.56 (≈ 2.71 µM) |  |  |  |  |  |  |  |  |
| N#CCO/N=C(\C(=O)N[C@@H]1C(=O)N2C(C(=O)[O-])=C(/C=C/C[N+]34CCCN3CCC4)CS[C@H]12)c1nsc(N)n1 [Example 161, 7β-[2-(5-Amino-1,2,4-thiadiazol-3-yl)-(Z)-2-cyanomethoxyiminoacetoamido]-3-[(E)-3-(1,5-diazabicyclo[3.3.0]octane-1-io)-1-propen-1-yl]-3-cephem-4-carboxylate] | 0.2 (≈ 0.357 µM) |  | 0.1 (≈ 0.179 µM) |  | 0.2 (≈ 0.357 µM) | 0.05 (≈ 0.0893 µM) |  | 0.05 (≈ 0.0893 µM) | 1.56 (≈ 2.79 µM) |  |  |  |  |  |  |  |  |
